Values quoted from earlier work, collected in patent US20240408163A1, “CAPILLARY NUTRITIONAL COMPLEX” (NATURAL FOLIC, S.L., priority 2023, published 2024).

CC1=C(/C=C/C(C)=C/C=C/C(C)=C/C=C/C=C(C)/C=C/C=C(C)/C=C/C2=C(C)C(=O)[C@@H](O)CC2(C)C)C(C)(C)C[C@H](O)C1=O [Astaxanthin]
antioxidant power relative to coenzyme Q10 (times more powerful than coenzyme Q10): 800 times | antioxidant power relative to vitamin C (times more powerful than vitamin C): 6000 times
